Data on six molecules can be found in ChEMBL document CHEMBL3588804, “Structure-activity relationship studies on acremomannolipin A, the potent calcium signal modulator with a novel glycolipid structure 3: role of the length of alditol side chain” (Bioorg Med Chem, 2015).

Activity calls are given as the source filed them. The calls are words filed in the database; no cut-off is given here.

The subject of the assay is Schizosaccharomyces pombe. Put plainly: Suppression of Cl- sensitive growth defect in calcineurin gene deleted Schizosaccharomyces pombe (h+ leu1 ura4-D18 ppb1::ura4+) at 100 uM after 3 days by filter paper disk assay in presence of 0.11 M MgCl2 in YPD medium.
Turning to `CCCCCCCC(=O)O[C@@H]1[C@H](OCCO)O[C@H](COC(=O)CCCCC)[C@@H](OC(=O)CCCCC)[C@@H]1OC(=O)CCCCC`, the result was inactive.

Turning to `CCCCCCCC(=O)O[C@@H]1[C@H](OC[C@@H](O)[C@@H](O)[C@H](O)CO)O[C@H](COC(=O)CCCCC)[C@@H](OC(=O)CCCCC)[C@@H]1OC(=O)CCCCC`, the result was Active.

As for `CCCCCCCC(=O)O[C@@H]1[C@H](OC[C@@H](O)[C@@H](O)CO)O[C@H](COC(=O)CCCCC)[C@@H](OC(=O)CCCCC)[C@@H]1OC(=O)CCCCC`, the result was Active.

Consider `CCCCCCCC(=O)O[C@@H]1[C@H](OC[C@@H](O)CO)O[C@H](COC(=O)CCCCC)[C@@H](OC(=O)CCCCC)[C@@H]1OC(=O)CCCCC`, for which the outcome was inactive.

Take `CCCCCCCC(=O)O[C@@H]1[C@H](OC[C@@H](O)[C@@H](O)[C@H](O)[C@H](O)CO)O[C@H](COC(=O)CCCCC)[C@@H](OC(=O)CCCCC)[C@@H]1OC(=O)CCCCC`: the outcome was Active.

Regarding `CCCCCCCC(=O)O[C@@H]1[C@H](OC[C@@H](O)[C@@H](O)[C@H](O)[C@H](O)[C@@H](O)CO)O[C@H](COC(=O)CCCCC)[C@@H](OC(=O)CCCCC)[C@@H]1OC(=O)CCCCC`, the outcome was Active.
